Test results as given in patent publication US11814376B2, “Hepatitis b core protein modulators” (Assembly Biosciences, Inc., priority 2015, dated 2023).

Assays:
[1] = tested on: AD38 cells; test: Viability of AD38 cells (Promega CellTiter-Glo); type: cell-based; details: 10 μM compound, 6 days, CellTiter-Glo luminescence normalized to DMSO control (100%)
Procedure, shortened: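 AD38 cells were seeded at 50,000/well on collagen-coated plates and treated with compound added as a 10× solution in 10% DMSO for 6 days at 37° C. Viability was measured by CellTiter-Glo luminescence in tetracycline-free medium with 2% FBS and 1% DMSO, and expressed as percent of DMSO control.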

[2] = tested on: HBV viral load in AD38 cells; test: Viral load production in AD38 cells, quantitative PCR of the core sequence in supernatant; type: cell-based; details: Hepatitis B virus, 144 h, 10 μM compound, 6 days at 37° C., supernatant qPCR, relative to DMSO control; read-out: AD38 Viral Load (%) (VL with cmpd/VL in DMSO control) at 10 μM

## O=C(NCc1cnc(C(=O)c2ccccc2)s1)c1ccc2c(c1)NC(=O)c1ccccc1S2(=O)=O [compound 1929]
[1]
  AD38 Viability Normalized Result (cmpd/DMSO %) at 10 μM: 93%
[2]
  activity at 10 µM: 1.2%

## O=C1Cc2cc(-c3ncc(CNC(=O)c4ccc5c(c4)NC(=O)c4ccccc4S5(=O)=O)s3)ccc2N1 [compound 1821]
[1]
  AD38 Viability Normalized Result (cmpd/DMSO %) at 10 μM: 102%
[2]
  activity at 10 µM: 0.5%

## CN(C)CCCCc1ccc(-c2ncc(CNC(=O)c3ccc4c(c3)NC(=O)c3ccccc3S4(=O)=O)s2)cc1 [compound 11005, N-((2-(4-(4-(dimethylamino)butyl)phenyl)thiazol-5-yl)methyl)-11-oxo-10, 11-dihydrodibenzo [b, f] [1, 4] thiazepine-8-carboxamide 5,5-dioxide]
[1]
  AD38 Viability Normalized Result (cmpd/DMSO %) at 10 μM: 102%
[2]
  activity at 10 µM: 1.9%

## N#Cc1ccc(-c2ncc(CNC(=O)c3cc4c(cc3Cl)S(=O)(=O)c3ccccc3C(=O)N4)s2)cc1 [compound 1935]
[1]
  AD38 Viability Normalized Result (cmpd/DMSO %) at 10 μM: 112%
[2]
  activity at 10 µM: 0.7%

## Cc1c(C(=O)NCc2cnc(-c3ccc(C#N)cc3)s2)cc(Br)c2c1NC(=O)c1ccccc1S2 [compound 1915]
[1]
  AD38 Viability Normalized Result (cmpd/DMSO %) at 10 μM: 100%
[2]
  activity at 10 µM: 15.7%

## O=C(NCc1cnc(-c2ccccc2)s1)c1ccc2c(c1)NC(=O)c1ccccc1S2(=O)=O [compound 1525]
[1]
  AD38 Viability Normalized Result (cmpd/DMSO %) at 10 μM: 104%
[2]
  activity at 10 µM: 0.2%

## Cc1c(C(=O)NCc2cnc(-n3cccn3)s2)ccc2c1NC(=O)c1ccccc1S2(=O)=O [C38-02]
[1]
  AD38 Viability Normalized Result (cmpd/DMSO %) at 10 μM: 94%
[2]
  activity at 10 µM: 0.5%
